Data reported in article PMC5424325, “Effect of health foods on cytochrome P450-mediated drug metabolism” (Journal of Pharmaceutical Health Care and Sciences, 2017).

Columns and labels:
CYP1A2 [1] = target: T1, CYP1A2 (Homo sapiens, UniProt P05177); conditions: Phenacetin O-deethylation, Ad-P450 cells, 5 h
T1 sequence (P05177 1-516): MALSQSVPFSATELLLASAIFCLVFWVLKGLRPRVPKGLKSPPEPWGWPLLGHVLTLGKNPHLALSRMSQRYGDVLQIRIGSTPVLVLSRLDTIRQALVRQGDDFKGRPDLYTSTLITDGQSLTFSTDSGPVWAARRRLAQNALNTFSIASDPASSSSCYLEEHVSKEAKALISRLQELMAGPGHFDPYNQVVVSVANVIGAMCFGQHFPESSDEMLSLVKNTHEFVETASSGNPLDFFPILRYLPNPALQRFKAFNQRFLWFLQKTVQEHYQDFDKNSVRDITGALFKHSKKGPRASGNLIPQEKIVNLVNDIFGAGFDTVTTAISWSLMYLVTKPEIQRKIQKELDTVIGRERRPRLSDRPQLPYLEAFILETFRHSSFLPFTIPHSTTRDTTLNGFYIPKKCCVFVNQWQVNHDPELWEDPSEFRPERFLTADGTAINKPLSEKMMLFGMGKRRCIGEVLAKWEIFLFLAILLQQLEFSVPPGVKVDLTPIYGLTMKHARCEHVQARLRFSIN
Protocol: (§1) The cells were seeded in a 48-well tissue culture plate (Becton Dickinson) at 5.0 × 10^4 cells/well. After 48 h, the cells were simultaneously infected with Ad-CYP1A2 at 5 multiplicity of infection (MOI), Ad-CYP2C9 at 1 MOI, Ad-CYP2C19 at 2 MOI, Ad-CYP2D6 at 0.05 MOI, and Ad-CYP3A4 at 10 MOI. […] After shaking, the mixtures were centrifuged at 2500 × g for 10 min and the supernatants were evaporated to dryness at 60 °C in a block incubator. The residues were dissolved in acetonitrile containing 0.1% acetic acid and the solutions were subjected to liquid chromatography/tandem mass spectrometry (LC-MS/MS) analysis.
(§2) The Prominence system (Shimadzu Corporation, Kyoto, Japan) equipped with LCMS-8040 system (Shimadzu Corporation) was used for LC-MS/MS analysis with an electrospray ionization interface. The ionization mode used was positive in the multiple reaction monitoring. The chromatographic separation was performed on Xterra MS C18 columns (2.1 mm × 100 mm, 5 μm) (Waters, Milford, MA, USA). The column oven temperature was maintained at 40 °C. The mobile phase consisted of acetonitrile containing 0.1% acetic acid and water containing 0.1% acetic acid (85:15) with a flow rate of 200 μL/min. […]
(§3) The Km, Vmax, and IC50 values were determined using Prism software (version 6.0; GraphPad Software Inc., San Diego, CA, USA).

CYP3A4 [2] = target: T2, CYP3A4 (Homo sapiens, UniProt P08684); experiment: Kinetic analysis of midazolam 1′-hydroxylation in Ad-P450 cells; format: in vitro ADME
T2 construct: expressed in transfected cells; host or cells: HepG2 cells infected with Ad-CYP3A4 (10 MOI) together with the four other P450 adenoviruses
T2 sequence (P08684 whole entry): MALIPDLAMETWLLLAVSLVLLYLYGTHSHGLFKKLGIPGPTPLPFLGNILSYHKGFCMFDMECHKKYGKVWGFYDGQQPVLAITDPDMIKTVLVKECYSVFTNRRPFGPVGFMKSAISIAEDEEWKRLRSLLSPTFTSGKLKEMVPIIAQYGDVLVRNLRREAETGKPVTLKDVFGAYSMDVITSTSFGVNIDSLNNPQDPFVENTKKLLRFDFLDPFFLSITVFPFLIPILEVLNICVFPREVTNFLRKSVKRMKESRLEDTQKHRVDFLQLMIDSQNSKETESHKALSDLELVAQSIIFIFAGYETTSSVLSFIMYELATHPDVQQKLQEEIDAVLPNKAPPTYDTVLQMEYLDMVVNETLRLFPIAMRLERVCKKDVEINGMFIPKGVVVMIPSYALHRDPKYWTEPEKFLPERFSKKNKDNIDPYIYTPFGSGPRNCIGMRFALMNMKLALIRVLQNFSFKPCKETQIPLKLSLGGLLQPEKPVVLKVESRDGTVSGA
Protocol: as §1, §2, §3

CYP1A2 [3] = conditions: cited from earlier work
CYP2C9 [4] = conditions: competitive inhibitor; cited from earlier work
CYP3A4 [5] = conditions: cited from earlier work
CYP2C9 [6] = target: T3, CYP2C9 (Homo sapiens, UniProt P11712); experiment: Kinetic analysis of diclofenac 4′-hydroxylation in Ad-P450 cells; format: in vitro ADME
T3 construct: expressed in transfected cells; host or cells: HepG2 cells infected with Ad-CYP2C9 (1 MOI) together with the four other P450 adenoviruses
T3 sequence (P11712 whole entry): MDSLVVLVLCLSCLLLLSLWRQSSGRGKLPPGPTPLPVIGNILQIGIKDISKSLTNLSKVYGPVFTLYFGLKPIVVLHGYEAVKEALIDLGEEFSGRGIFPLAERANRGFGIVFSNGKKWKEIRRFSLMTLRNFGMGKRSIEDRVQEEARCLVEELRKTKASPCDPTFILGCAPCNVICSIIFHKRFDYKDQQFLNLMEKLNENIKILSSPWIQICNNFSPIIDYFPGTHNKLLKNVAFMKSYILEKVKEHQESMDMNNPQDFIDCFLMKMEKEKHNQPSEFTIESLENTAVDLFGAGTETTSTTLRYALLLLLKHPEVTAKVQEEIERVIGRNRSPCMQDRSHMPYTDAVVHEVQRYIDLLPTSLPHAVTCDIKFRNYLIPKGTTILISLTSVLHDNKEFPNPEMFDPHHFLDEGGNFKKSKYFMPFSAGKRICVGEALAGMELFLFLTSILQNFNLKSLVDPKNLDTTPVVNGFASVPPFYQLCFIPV
Protocol: The column oven temperature was maintained at 40 °C.

CYP2C19 [7] = target: T4, CYP2C19 (Homo sapiens, UniProt P33261); experiment: CYP2C19 inhibition (omeprazole 5-hydroxylation) in Ad-P450 cells, substrate cocktail; format: in vitro ADME; conditions: probe omeprazole (5-hydroxylation), read-out: Residual activity CYP2C19
T4 construct: expressed in transfected cells; host or cells: HepG2 cells infected with Ad-CYP2C19 (2 MOI) together with the four other P450 adenoviruses
T4 sequence (P33261 whole entry): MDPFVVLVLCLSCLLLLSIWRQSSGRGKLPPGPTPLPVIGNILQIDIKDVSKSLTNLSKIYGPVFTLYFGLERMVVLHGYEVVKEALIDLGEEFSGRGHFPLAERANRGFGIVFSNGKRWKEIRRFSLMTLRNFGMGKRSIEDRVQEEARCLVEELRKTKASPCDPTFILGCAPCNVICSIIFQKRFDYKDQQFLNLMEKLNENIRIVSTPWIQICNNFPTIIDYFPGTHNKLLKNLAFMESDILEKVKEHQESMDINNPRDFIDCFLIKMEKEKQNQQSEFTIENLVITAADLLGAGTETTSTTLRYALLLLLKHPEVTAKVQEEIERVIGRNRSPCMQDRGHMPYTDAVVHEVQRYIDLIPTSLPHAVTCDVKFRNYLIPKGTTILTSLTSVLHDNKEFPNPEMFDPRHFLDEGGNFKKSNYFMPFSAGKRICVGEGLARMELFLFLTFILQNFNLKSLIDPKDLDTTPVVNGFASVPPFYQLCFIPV

CYP2D6 [8] = target: T5, CYP2D6 (Homo sapiens, UniProt P10635); experiment: CYP2D6 inhibition (dextromethorphan O-demethylation) in Ad-P450 cells, substrate cocktail; format: in vitro ADME; conditions: read-out: Residual activity CYP2D6
T5 construct: expressed in transfected cells; host or cells: HepG2 cells infected with Ad-CYP2D6 (0.05 MOI) together with the four other P450 adenoviruses
T5 sequence (P10635 whole entry): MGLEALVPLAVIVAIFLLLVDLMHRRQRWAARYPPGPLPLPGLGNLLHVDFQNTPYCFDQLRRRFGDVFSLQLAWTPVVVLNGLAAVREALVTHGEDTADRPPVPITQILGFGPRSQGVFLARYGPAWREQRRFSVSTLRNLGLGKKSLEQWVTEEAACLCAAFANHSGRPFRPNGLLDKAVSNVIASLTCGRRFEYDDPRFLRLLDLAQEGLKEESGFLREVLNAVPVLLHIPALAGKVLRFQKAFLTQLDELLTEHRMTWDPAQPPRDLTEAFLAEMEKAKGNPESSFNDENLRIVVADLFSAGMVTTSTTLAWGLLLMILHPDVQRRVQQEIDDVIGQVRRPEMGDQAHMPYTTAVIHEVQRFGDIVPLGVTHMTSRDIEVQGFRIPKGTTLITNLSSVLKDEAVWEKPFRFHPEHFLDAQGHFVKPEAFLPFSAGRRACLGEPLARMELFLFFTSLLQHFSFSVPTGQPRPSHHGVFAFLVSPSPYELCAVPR

CYP3A4 [9] = target: T2, CYP3A4; experiment: CYP3A4 inhibition (midazolam 1′-hydroxylation) in Ad-P450 cells, substrate cocktail; format: in vitro ADME; conditions: probe midazolam (1′-hydroxylation), read-out: Residual activity CYP3A4
CYP1A2 [10] = target: T1, CYP1A2; experiment: CYP1A2 inhibition (phenacetin O-deethylation) in Ad-P450 cells, substrate cocktail; format: in vitro ADME; design: expressed in transfected cells; host or cells: HepG2 cells infected with Ad-CYP1A2 (5 MOI) together with the four other P450 adenoviruses; conditions: probe phenacetin (O-deethylation), read-out: Residual activity CYP1A2
CYP2C19 [11] = target: T4, CYP2C19; experiment: Kinetic analysis of omeprazole 5-hydroxylation in Ad-P450 cells; format: in vitro ADME
Protocol: as §1, §2, §3

CYP2D6 [12] = target: T5, CYP2D6; experiment: Kinetic analysis of dextromethorphan O-demethylation in Ad-P450 cells; format: in vitro ADME
Protocol: as §1, §2, §3

## CCOc1ccc(NC(C)=O)cc1 [Phenacetin]
CYP1A2 [1]
  Vmax: 100.30 pmol/well/hr

## Cc1ncc2n1-c1ccc(Cl)cc1C(c1ccccc1F)=NC2 [Midazolam]
CYP3A4 [2]; Midazolam 1′-hydroxylation, Ad-P450 cells, 5 h
  Vmax: 12.30 pmol/well/hr
CYP3A4 [2]; human
  Km at 5 h: 1 µM

## c1cc2c(cc1[C@H]1OC[C@H]3[C@@H]1CO[C@@H]3c1ccc3c(c1)OCO3)OCO2 [Sesamin]
CYP1A2 [3]
  Ki: 75 µM
CYP2C9 [4]
  Ki: 24 µM
CYP3A4 [5]
  Ki: 4.2 µM

## O=C(O)Cc1ccccc1Nc1c(Cl)cccc1Cl [Diclofenac]
CYP2C9 [6]; 5 h
  Vmax: 239.9 pmol/well/hr
CYP2C9 [6]; human
  Km at 5 h: 5.87 µM

## COc1cc(/C=C/C(=O)CC(=O)/C=C/c2ccc(O)c(OC)c2)ccc1O [curcumin]
CYP2C19 [7]
  activity at 5 h, 50 μM: 72.7%
CYP2D6 [8]
  activity at 5 h, 50 μM: 71.9%
CYP3A4 [9]
  activity at 5 h, 50 μM: 61.9%
CYP1A2 [10]
  activity at 5 h, 50 μM: 58.3%

## COc1ccc2[nH]c([S+]([O-])Cc3ncc(C)c(OC)c3C)nc2c1 (stereo not shown) [Omeprazole]
CYP2C19 [11]; 5 h
  Vmax: 4.66 pmol/well/hr
CYP2C19 [11]; human
  Km at 5 h: 2.75 µM

## COc1ccc2c(c1)[C@]13CCCC[C@@H]1[C@H](C2)N(C)CC3 [Dextromethorphan]
CYP2D6 [12]; Dextromethorphan O-demethylation, Ad-P450 cells, 5 h
  Vmax: 1.10 pmol/well/hr
CYP2D6 [12]; human
  Km at 5 h: 17.1 µM
